Laboratory results from patent US20250215016A1, “ISOXAZOLE-HETEROCYCLIC DERIVATIVE, PHARMACEUTICAL COMPOSITION AND USE” (SHANGHAI SIMR BIOTECHNOLOGY CO., LTD, priority 2022, published 2025).

biological target: α5-GABAA receptor (Homo sapiens (Human), UniProt P18507+P31644); assay: Whole-cell patch clamp electrophysiology, inverse regulation activity in α5β3γ2-HEK293 cells; type: cell-based; conditions: compound 100 nM; GABA 0.05-0.06 μM (about EC7-8); clamped at −60 mV; read-out: Inverse regulation efficiency to α5-GABAA receptor
How it was run: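 HEK293 cells expressing α5β3γ2 recorded whole-cell at −60 mV holding potential, GABA 0.05-0.06 μM (about EC7-8) applied, then compound at 100 nM final with GABA. pH 7.4 extracellular, CsCl-based pipette solution. Inverse regulation efficiency = (Itreatment−Igaba)/(Igaba−Iprebaseline)×100%.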

α5-GABAA receptor, sequence (P31644 32-462): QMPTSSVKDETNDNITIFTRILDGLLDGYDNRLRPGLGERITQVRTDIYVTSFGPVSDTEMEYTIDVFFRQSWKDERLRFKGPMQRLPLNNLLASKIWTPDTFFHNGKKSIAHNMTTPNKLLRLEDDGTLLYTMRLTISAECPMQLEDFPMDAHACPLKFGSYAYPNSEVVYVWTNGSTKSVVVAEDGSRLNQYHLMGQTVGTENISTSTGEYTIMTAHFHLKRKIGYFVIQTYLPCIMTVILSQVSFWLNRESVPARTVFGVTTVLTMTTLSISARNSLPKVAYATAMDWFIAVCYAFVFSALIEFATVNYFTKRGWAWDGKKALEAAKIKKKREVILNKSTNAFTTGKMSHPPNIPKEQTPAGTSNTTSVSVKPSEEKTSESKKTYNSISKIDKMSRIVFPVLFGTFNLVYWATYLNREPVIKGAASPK
α5-GABAA receptor, sequence (P28472 26-473 partner): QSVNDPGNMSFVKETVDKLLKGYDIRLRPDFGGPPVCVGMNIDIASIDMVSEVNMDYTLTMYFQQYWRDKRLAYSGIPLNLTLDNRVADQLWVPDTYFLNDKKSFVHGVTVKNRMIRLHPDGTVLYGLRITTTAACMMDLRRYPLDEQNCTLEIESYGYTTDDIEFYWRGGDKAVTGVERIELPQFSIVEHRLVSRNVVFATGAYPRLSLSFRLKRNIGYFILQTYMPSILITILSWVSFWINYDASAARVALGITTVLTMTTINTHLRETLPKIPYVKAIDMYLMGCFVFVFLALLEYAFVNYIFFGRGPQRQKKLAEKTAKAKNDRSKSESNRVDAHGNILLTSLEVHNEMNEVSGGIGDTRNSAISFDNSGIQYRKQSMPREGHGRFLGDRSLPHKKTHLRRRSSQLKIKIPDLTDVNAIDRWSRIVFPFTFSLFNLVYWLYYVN
α5-GABAA receptor, sequence (P18507 other isoform, or with tags, fused parts or gaps): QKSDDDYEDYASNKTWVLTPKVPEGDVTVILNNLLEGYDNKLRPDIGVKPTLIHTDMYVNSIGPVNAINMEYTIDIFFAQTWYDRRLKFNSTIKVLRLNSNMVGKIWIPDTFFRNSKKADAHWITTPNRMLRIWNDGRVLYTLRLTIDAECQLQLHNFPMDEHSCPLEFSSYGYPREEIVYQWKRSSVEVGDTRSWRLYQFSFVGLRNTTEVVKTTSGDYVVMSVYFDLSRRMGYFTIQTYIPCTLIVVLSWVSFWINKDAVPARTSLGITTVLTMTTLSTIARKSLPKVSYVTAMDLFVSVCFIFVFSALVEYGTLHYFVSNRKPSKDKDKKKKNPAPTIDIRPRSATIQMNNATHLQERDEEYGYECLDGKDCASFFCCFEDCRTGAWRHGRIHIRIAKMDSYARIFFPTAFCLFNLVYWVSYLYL

Compound	inhibition at 0.1 µM
Cc1onc(-c2ccc(F)cc2)c1COc1ccc(N2CCN3CCNC(=O)C3C2)nn1 (centres unmarked) [Compound 10, 8-(6-((3-(4-fluorophenyl)-5-methylisoxazol-4-yl)methoxy)pyridazin-3-yl) hexahydro-2H-pyrazino[1,2-a]pyrazin-1 (6H)-one]	66%
Cc1onc(-c2ccc(F)cc2)c1COc1ccc(-c2cc3n(c(=O)n2)CCN3C)cn1 [Compound 41, 7-(6-((3-(4-fluorophenyl)-5-methylisoxazol-4-yl)methoxy)pyridin-3-yl)-1-methyl-2,3-dihydroimidazo[1,2-c]pyrimidin-5(1H)-one]	47%
Cc1onc(-c2ccc(F)cc2)c1COc1ccc(-c2cc3n(c(=O)n2)C[C@]24CO[C@H](CN32)C4)cn1 [Compound 38]	56%
Cc1onc(-c2ccc(F)cc2)c1COc1ccc(-c2nnc3n2CCOC3)cn1 [Compound 17, 3-(6-((3-(4-fluorophenyl)-5-methylisoxazol-4-yl)methoxy)pyridin-3-yl)-5,6-dihydro-8H-[1,2,4]triazolo[3,4-c][1,4]oxazine]	49%
Cc1onc(-c2ccc(F)cc2)c1COc1ccc(N2CCn3ccnc3C2=O)nn1 [Compound 37, 7-(6-((3-(4-fluorophenyl)-5-methylisoxazol-4-yl)methoxy)pyridazin-3-yl)-6,7-dihydroimidazo[1,2-a]pyrazin-8(5H)-one]	54%
Cc1onc(-c2ccc(F)cc2)c1COc1ccc(-c2nnc3n2CCS(=O)(=O)C3)cn1 [Compound 7, 3-(6-((3-(4-fluorophenyl)-5-methylisoxazol-4-yl)methoxy)pyridin-3-yl)-5,6-dihydro-8H-[1,2,4]triazolo[3,4-c][1,4]thiazine 7,7-dioxide]	37%

Continued, values first:

inhibition at 0.1 µM	Compound
54%	Cc1onc(-c2ccc(F)cc2)c1COc1cnc(-c2nnc3n2CCOC3)cn1 [Compound 19, 3-(5-((3-(4-fluorophenyl)-5-methylisoxazol-4-yl)methoxy)pyrazin-2-yl)-5,6-dihydro-8H-[1,2,4]triazolo[3,4-c][1,4]oxazine]
45%	Cc1onc(-c2ccc(F)cc2)c1COc1cnc(-c2nnc3n2CCC3)cn1 [Compound 23, 4-(((5-(6,7-dihydro-5H-pyrrolo[2,1-c][1,2,4]triazol-3-yl)pyrazin-2-yl)oxy)methyl)-3-(4-fluorophenyl)-5-methylisoxazole]
44%	Cc1onc(-c2ccc(F)cc2)c1COc1cnc(-c2nnc3n2CCCOC3)cn1 [Compound 24, 3-(5-((3-(4-fluorophenyl)-5-methylisoxazol-4-yl)methoxy)pyrazin-2-yl)-6,7-dihydro-5H,9H-[1,2,4]triazolo[3,4-c][1,4]oxazepane]
48%	Cc1onc(-c2ccc(F)cc2)c1COc1cnc(-c2nnc3n2CCOCC3)cn1 [Compound 33, 3-(5-((3-(4-fluorophenyl)-5-methylisoxazol-4-yl)methoxy)pyrazin-2-yl)-5,6,8,9-tetrahydro-[1,2,4]triazolo[4,3-d][1,4]oxazepane]
57%	Cc1onc(-c2ccc(F)cc2)c1COc1ccc(-c2nnc3n2CCOC3)nn1 [Compound 18, 3-(6-((3-(4-fluorophenyl)-5-methylisoxazol-4-yl)methoxy)pyridazin-3-yl)-5,6-dihydro-8H-[1,2,4]triazolo[3,4-c][1,4]oxazine]
